The results in this text go back to patent US10072017B2, “Compounds and methods for the treatment of cystic fibrosis” (Flatley Discovery Lab, LLC, priority 2015, dated 2018).

In the assay the target is T1, CFTR (Homo sapiens, UniProt P13569, DEL508-508).
T1 construct: Primary CF airway epithelial cells were obtained from the UNC Cystic Fibrosis Tissue Procurement and Cell Culture Core; host or cells: primary CF airway epithelial cells
Put plainly: Equivalent current assay in Primary CF airway epithelial cells (NAUC). The assay is classed as cell-based. The note with it: 24 h, normalized to VX809 (3 μM) positive control; for Nauc @ 3 μM: 3 μM test compound; for Nauc @ 10 μM: 10 μM test compound. A digest of the protocol:
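NAUC is the area under the curve from forskolin (10 μM) plus VX770 (1 μM) addition to CFTR-172 (20 μM) block, after benzamil (5 μM). It is corrected for vehicle and scaled to 3 μM VX809 as 1.0 and DMSO as 0.0. Cells were exposed for 24 h to compounds with VX809; medians of ≥4 replicates were fitted sigmoidally.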

T1 sequence (P13569 with tags, fused parts or gaps DEL508-508): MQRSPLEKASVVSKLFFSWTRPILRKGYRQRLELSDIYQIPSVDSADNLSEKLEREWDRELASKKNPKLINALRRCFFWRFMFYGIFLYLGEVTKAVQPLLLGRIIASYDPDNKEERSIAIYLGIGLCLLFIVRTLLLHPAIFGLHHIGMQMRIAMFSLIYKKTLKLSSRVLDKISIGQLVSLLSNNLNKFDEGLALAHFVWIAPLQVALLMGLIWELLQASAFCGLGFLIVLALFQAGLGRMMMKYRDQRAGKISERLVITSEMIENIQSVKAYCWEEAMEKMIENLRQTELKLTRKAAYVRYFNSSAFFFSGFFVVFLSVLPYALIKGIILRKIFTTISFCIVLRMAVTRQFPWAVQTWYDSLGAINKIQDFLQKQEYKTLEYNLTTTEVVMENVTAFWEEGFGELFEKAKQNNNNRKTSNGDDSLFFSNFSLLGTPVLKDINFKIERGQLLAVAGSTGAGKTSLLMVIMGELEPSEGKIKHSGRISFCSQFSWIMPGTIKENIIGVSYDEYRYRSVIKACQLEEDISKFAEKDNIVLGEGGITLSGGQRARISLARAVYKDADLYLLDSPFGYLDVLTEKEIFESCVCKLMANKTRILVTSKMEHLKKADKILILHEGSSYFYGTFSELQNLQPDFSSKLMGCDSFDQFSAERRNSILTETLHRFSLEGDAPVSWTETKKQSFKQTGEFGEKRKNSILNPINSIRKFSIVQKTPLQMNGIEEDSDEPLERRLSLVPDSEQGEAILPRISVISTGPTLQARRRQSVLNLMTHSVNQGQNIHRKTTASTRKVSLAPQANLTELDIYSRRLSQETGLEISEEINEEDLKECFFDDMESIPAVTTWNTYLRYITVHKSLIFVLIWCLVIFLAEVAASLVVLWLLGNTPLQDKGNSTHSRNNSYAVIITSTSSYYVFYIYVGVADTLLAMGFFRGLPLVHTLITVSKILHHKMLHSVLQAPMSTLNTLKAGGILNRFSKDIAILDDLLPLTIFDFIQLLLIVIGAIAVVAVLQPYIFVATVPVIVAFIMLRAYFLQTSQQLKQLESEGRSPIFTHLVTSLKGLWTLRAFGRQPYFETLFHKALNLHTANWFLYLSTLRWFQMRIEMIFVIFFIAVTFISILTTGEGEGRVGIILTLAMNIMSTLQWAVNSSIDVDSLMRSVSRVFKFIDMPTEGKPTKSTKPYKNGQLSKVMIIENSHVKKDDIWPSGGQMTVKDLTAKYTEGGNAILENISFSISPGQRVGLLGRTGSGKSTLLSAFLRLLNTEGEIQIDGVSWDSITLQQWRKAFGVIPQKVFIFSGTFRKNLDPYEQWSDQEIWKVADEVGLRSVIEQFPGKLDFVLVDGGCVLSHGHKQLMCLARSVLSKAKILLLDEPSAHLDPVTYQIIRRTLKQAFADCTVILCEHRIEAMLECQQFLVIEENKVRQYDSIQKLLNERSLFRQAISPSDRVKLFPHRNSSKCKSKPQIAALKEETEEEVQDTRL

For `COc1cccc(CC2NC3(C(=O)Nc4c(Cl)cc(Cl)cc43)C3C(=O)N(c4cc(Cl)cc(Cl)c4)C(=O)C23)c1` (stereo not shown) [Example 200], the “Nauc @ 3 μM” value is “++ (NAUC “++” refers to an observed NAUC 170-140% of positive control)” and the “Nauc @ 10 μM” value is “+ (NAUC “+” refers to an observed NAUC <140% of positive control)”.
For `COc1ccccc1CC1NC2(C(=O)Nc3c(Cl)cc(Cl)cc32)C2C(=O)N(c3cc(Cl)cc(Cl)c3)C(=O)C12` (stereo not shown) [Example 201], in that order: “+ (NAUC “+” refers to an observed NAUC <140% of positive control)” and “+++ (NAUC “+++” refers to an observed NAUC >170% of positive control)”.
Turning to `O=C1C2C(Cc3cccc(O)c3)NC3(C(=O)Nc4c(Cl)cc(Cl)cc43)C2C(=O)N1c1cc(Cl)cc(Cl)c1` (stereo not shown) [Example 202], the “Nauc @ 3 μM” value is “+ (NAUC “+” refers to an observed NAUC <140% of positive control)” and the “Nauc @ 10 μM” value is given as “++ (NAUC “++” refers to an observed NAUC 170-140% of positive control)”.
For `O=C1C2C(Cc3ccccn3)NC3(C(=O)Nc4c(Cl)cc(Cl)cc43)C2C(=O)N1c1cc(Cl)cc(Cl)c1` (stereo not shown) [Example 203], in that order: “++ (NAUC “++” refers to an observed NAUC 170-140% of positive control)” and “++ (NAUC “++” refers to an observed NAUC 170-140% of positive control)”.
On the same counts, the results for `C[C@]1(F)CC2C3C(=O)N(c4cc(Cl)cc(Cl)c4)C(=O)C3C3(C(=O)Nc4c(Cl)cc(Cl)cc43)N2C1` (stereo partly shown) [Example 204] are “+ (NAUC “+” refers to an observed NAUC <140% of positive control)” and “+++ (NAUC “+++” refers to an observed NAUC >170% of positive control)”.
Turning to `COc1cc(Cl)cc(N2C(=O)C3C4C[C@](C)(F)CN4C4(C(=O)Nc5c(Cl)cc(Cl)cc54)C3C2=O)c1` (stereo partly shown) [Example 205], the “Nauc @ 3 μM” value was “++ (NAUC “++” refers to an observed NAUC 170-140% of positive control)” and the “Nauc @ 10 μM” value is recorded as “+++ (NAUC “+++” refers to an observed NAUC >170% of positive control)”.
Regarding `C[C@@]1(O)CC2C3C(=O)N(c4cc(Cl)cc(Cl)n4)C(=O)C3C3(C(=O)Nc4c(Cl)cc(Cl)cc43)N2C1` (stereo partly shown) [Example 206], the “Nauc @ 3 μM” value was “++ (NAUC “++” refers to an observed NAUC 170-140% of positive control)” and the “Nauc @ 10 μM” value was “+++ (NAUC “+++” refers to an observed NAUC >170% of positive control)”.
On the same counts, the results for `Nc1ccc(CC2NC3(C(=O)Nc4c(Cl)cc(Cl)cc43)C3C(=O)N(c4cc(Cl)cc(Cl)c4)C(=O)C23)cc1` (stereo not shown) [Example 207] are “++ (NAUC “++” refers to an observed NAUC 170-140% of positive control)” and “+ (NAUC “+” refers to an observed NAUC <140% of positive control)”.
Take `O=C1C2C(C3CCCCC3)NC3(C(=O)Nc4c(Cl)cc(Cl)cc43)C2C(=O)N1c1cc(Cl)cc(Cl)c1` (stereo not shown) [Example 208]: the “Nauc @ 3 μM” value is “++ (NAUC “++” refers to an observed NAUC 170-140% of positive control)” and the “Nauc @ 10 μM” value is “+ (NAUC “+” refers to an observed NAUC <140% of positive control)”.
As for `O=C1C2CN(c3ccccc3)C3(C(=O)Nc4c(Cl)cc(Cl)cc43)C2C(=O)N1c1cc(Cl)cc(Cl)c1` (stereo not shown) [Example 209], the “Nauc @ 3 μM” value is “+ (NAUC “+” refers to an observed NAUC <140% of positive control)” and the “Nauc @ 10 μM” value is reported as “+++ (NAUC “+++” refers to an observed NAUC >170% of positive control)”.
On the same counts, the results for `O=C1C2C(C(=O)N1c1cc(Cl)cc(Cl)c1)C1(NC23CC3)C(=O)Nc2c(Cl)cc(Cl)cc21` (stereo not shown) [Example 210] are “+ (NAUC “+” refers to an observed NAUC <140% of positive control)” and “++ (NAUC “++” refers to an observed NAUC 170-140% of positive control)”.
Take `O=C1C2C(C(=O)N1c1cc(Cl)cc(Cl)c1)C1(NC23CCC3)C(=O)Nc2c(Cl)cc(Cl)cc21` (stereo not shown) [Example 211]: the “Nauc @ 3 μM” value was “++ (NAUC “++” refers to an observed NAUC 170-140% of positive control)” and the “Nauc @ 10 μM” value is “++ (NAUC “++” refers to an observed NAUC 170-140% of positive control)”.
For `O=C1C2C(c3ccccn3)NC3(C(=O)Nc4c(Cl)cc(Cl)cc43)C2C(=O)N1c1cc(Cl)cc(Cl)c1` (stereo not shown) [Example 212], the “Nauc @ 3 μM” value is listed as “+ (NAUC “+” refers to an observed NAUC <140% of positive control)” and the “Nauc @ 10 μM” value is “++ (NAUC “++” refers to an observed NAUC 170-140% of positive control)”.
On the same counts, the results for `COc1c(Cl)cc(N2C(=O)C3C4CC(C(F)(F)F)CN4C4(C(=O)Nc5c(Cl)cc(Cl)cc54)C3C2=O)cc1Cl` (stereo not shown) [Example 213] are “++ (NAUC “++” refers to an observed NAUC 170-140% of positive control)” and “+++ (NAUC “+++” refers to an observed NAUC >170% of positive control)”.
Consider `[2H]C([2H])([2H])C1(C([2H])([2H])[2H])CC2C3C(=O)N(c4cc(Cl)c(OC)c(Cl)c4)C(=O)C3C3(C(=O)Nc4c(Cl)cc(Cl)cc43)N2C1` (stereo not shown) [Example 214], for which the “Nauc @ 3 μM” value is “+++ (NAUC “+++” refers to an observed NAUC >170% of positive control)” and the “Nauc @ 10 μM” value is “+++ (NAUC “+++” refers to an observed NAUC >170% of positive control)”.
Take `O=C1C2C3CC(C(F)(F)F)CN3C3(C(=O)Nc4c(Cl)cc(Cl)cc43)C2C(=O)N1c1cc(Cl)cc(Cl)c1` (stereo not shown) [Example 215]: the “Nauc @ 3 μM” value is on record as “+++ (NAUC “+++” refers to an observed NAUC >170% of positive control)” and the “Nauc @ 10 μM” value is listed as “++ (NAUC “++” refers to an observed NAUC 170-140% of positive control)”.
For `O=C1C2C3CCCN3C3(C(=O)Nc4c(Cl)cc(Cl)cc43)C2C(=O)N1c1nccs1` (stereo not shown) [Example 216], in that order: “++ (NAUC “++” refers to an observed NAUC 170-140% of positive control)” and “+ (NAUC “+” refers to an observed NAUC <140% of positive control)”.
On the same counts, the results for `O=C1C2C(Cc3c(F)cccc3Cl)NC3(C(=O)Nc4c(Cl)cc(Cl)cc43)C2C(=O)N1c1cc(Cl)cc(Cl)c1` (stereo not shown) [Example 217] are “++ (NAUC “++” refers to an observed NAUC 170-140% of positive control)” and “++ (NAUC “++” refers to an observed NAUC 170-140% of positive control)”.
Consider `O=C1C2C(Cc3ccccc3OC(F)(F)F)NC3(C(=O)Nc4c(Cl)cc(Cl)cc43)C2C(=O)N1c1cc(Cl)cc(Cl)c1` (stereo not shown) [Example 222], for which the “Nauc @ 3 μM” value is “+++ (NAUC “+++” refers to an observed NAUC >170% of positive control)” and the “Nauc @ 10 μM” value was “++ (NAUC “++” refers to an observed NAUC 170-140% of positive control)”.
`C[C@]1(O)CC2C3C(=O)N(c4cc(Cl)cc(Cl)n4)C(=O)C3C3(C(=O)Nc4c(Cl)cc(Cl)cc43)N2C1` (stereo partly shown) [Example 223]: the “Nauc @ 3 μM” value is on record as “+ (NAUC “+” refers to an observed NAUC <140% of positive control)” and the “Nauc @ 10 μM” value was “+++ (NAUC “+++” refers to an observed NAUC >170% of positive control)”.
With `O=C1C2C3CCCN3C3(C(=O)Nc4c(Cl)cc(Cl)cc43)C2C(=O)N1c1cc(Cl)c(OC(F)F)c(Cl)c1` (stereo not shown) [Example 224], the “Nauc @ 3 μM” value is given as “+++ (NAUC “+++” refers to an observed NAUC >170% of positive control)” and the “Nauc @ 10 μM” value is given as “+++ (NAUC “+++” refers to an observed NAUC >170% of positive control)”.
Consider `CC1(C)CC2C3C(=O)N(c4cc(Cl)c(OC(F)F)c(Cl)c4)C(=O)C3C3(C(=O)Nc4c(Cl)cc(Cl)cc43)N2C1` (stereo not shown) [Example 225], for which the “Nauc @ 3 μM” value is “+++ (NAUC “+++” refers to an observed NAUC >170% of positive control)” and the “Nauc @ 10 μM” value was “+++ (NAUC “+++” refers to an observed NAUC >170% of positive control)”.
As for `C[C@]1(O)CC2C3C(=O)N(c4cc(Cl)c(OC(F)F)c(Cl)c4)C(=O)C3C3(C(=O)Nc4c(Cl)cc(Cl)cc43)N2C1` (stereo partly shown) [Example 226], the “Nauc @ 3 μM” value was “++ (NAUC “++” refers to an observed NAUC 170-140% of positive control)” and the “Nauc @ 10 μM” value is listed as “++ (NAUC “++” refers to an observed NAUC 170-140% of positive control)”.
As to `O=C1C2C3CCCN3C3(C(=O)Nc4c(Cl)cc(Cl)cc43)C2C(=O)N1c1cccc(F)n1` (stereo not shown) [Example 227], the “Nauc @ 3 μM” value is reported as “+ (NAUC “+” refers to an observed NAUC <140% of positive control)” and the “Nauc @ 10 μM” value is on record as “++ (NAUC “++” refers to an observed NAUC 170-140% of positive control)”.
With `O=C1C2C(Cc3c(Cl)cccc3Cl)NC3(C(=O)Nc4c(Cl)cc(Cl)cc43)C2C(=O)N1c1cc(Cl)cc(Cl)c1` (stereo not shown) [Example 228], the “Nauc @ 3 μM” value is on record as “+++ (NAUC “+++” refers to an observed NAUC >170% of positive control)” and the “Nauc @ 10 μM” value is listed as “++ (NAUC “++” refers to an observed NAUC 170-140% of positive control)”.
Regarding `O=C1C2C3CCCN3C3(C(=O)Nc4c(Cl)cc(Cl)cc43)C2C(=O)N1c1ncc(Cl)s1` (stereo not shown) [Example 229], the “Nauc @ 3 μM” value is “+ (NAUC “+” refers to an observed NAUC <140% of positive control)” and the “Nauc @ 10 μM” value was “++ (NAUC “++” refers to an observed NAUC 170-140% of positive control)”.
As for `C[C@]1(F)CC2C3C(=O)N(c4cc(Cl)cc(Cl)n4)C(=O)C3C3(C(=O)Nc4c(Cl)cc(Cl)cc43)N2C1` (stereo partly shown) [Example 231], the “Nauc @ 3 μM” value was “+ (NAUC “+” refers to an observed NAUC <140% of positive control)” and the “Nauc @ 10 μM” value is reported as “+++ (NAUC “+++” refers to an observed NAUC >170% of positive control)”.
In the case of `C[C@]1(O)CC2C3C(=O)N(c4cccc(F)n4)C(=O)C3C3(C(=O)Nc4c(Cl)cc(Cl)cc43)N2C1` (stereo partly shown) [Example 233], the “Nauc @ 3 μM” value is given as “+++ (NAUC “+++” refers to an observed NAUC >170% of positive control)” and the “Nauc @ 10 μM” value is given as “++ (NAUC “++” refers to an observed NAUC 170-140% of positive control)”.
For `C[C@]1(O)CC2C3C(=O)N(c4ccon4)C(=O)C3C3(C(=O)Nc4c(Cl)cc(Cl)cc43)N2C1` (stereo partly shown) [Example 234], the “Nauc @ 3 μM” value was “+ (NAUC “+” refers to an observed NAUC <140% of positive control)” and the “Nauc @ 10 μM” value is given as “++ (NAUC “++” refers to an observed NAUC 170-140% of positive control)”.
